Laboratory results reported in PMC11448502, “Cryo-EM structures of the human P2X1 receptor reveal subtype-specific architecture and antagonism by supramolecular ligand-binding” (Nature Communications, 2024).
Positions count from the first letter of the chain named. Where “and” joins values, the source holds several entries; their conditions need not be identical. Equal values may be shown once. Entries after “also recorded” stand apart in the source; their conditions may differ.

Tests used:
Assay in all cases: ATP dose response (EC50), TEVC in oocytes
Format in all cases: cell-based
[1] = biological target: T1, hP2X1 D170A (Homo sapiens, UniProt P51575, D170A); details: for Normalized Current: hP2X1 D170A
T1 construct: hP2X1 mRNA that was made from linearized full-length wild-type or mutant pcDNA 3.1x; expressed in transfected cells; host or cells: Xenopus laevis oocytes (mRNA injection)
T1 sequence (P51575 1-399 D170A): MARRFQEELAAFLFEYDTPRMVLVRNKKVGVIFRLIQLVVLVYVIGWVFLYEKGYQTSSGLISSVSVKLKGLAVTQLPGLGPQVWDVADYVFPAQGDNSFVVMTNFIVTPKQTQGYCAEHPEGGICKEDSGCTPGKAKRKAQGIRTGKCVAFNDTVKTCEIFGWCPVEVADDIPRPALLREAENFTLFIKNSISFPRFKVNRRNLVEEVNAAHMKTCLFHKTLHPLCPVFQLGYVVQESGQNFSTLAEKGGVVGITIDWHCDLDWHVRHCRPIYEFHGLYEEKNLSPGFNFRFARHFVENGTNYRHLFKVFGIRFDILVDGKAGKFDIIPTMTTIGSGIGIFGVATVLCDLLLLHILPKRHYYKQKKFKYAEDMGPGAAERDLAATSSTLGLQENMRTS
Experimental: (§1) Oocytes were purchased defolliculated from Ecocyte Bioscience in Barth’s Solution (88 mM NaCl, 1 mM KCl, 0.82 mM MgSO4, 0.33 mM Ca(NO3)2, 0.41 mM CaCl2, 2.4 mM NaHCO3, 5 mM Tris-HCl) supplemented with penicillin (100 U/mL) and streptomycin (100 µg/mL). Xenopus laevis oocytes were then injected with 50 nL of 100 ng/μL hP2X1 mRNA that was made from linearized full-length wild-type or mutant pcDNA 3.1x according to the protocol provided in the mMessage mMachine kit (Invitrogen). Injected oocytes were allowed to express for ~20 hours at 18 °C before recording was performed.
(§2) Data acquisition was performed using the Oocyte Clamp OC-725C amplifier and pClamp 8.2 software. Buffers were applied using a gravity fed RSC-200 Rapid Solution Changer that flows at ~5 mL/min. All experiments use Sutter filamented glass 10 cm in length with an inner diameter of 0.69 mm and an outer diameter of 1.2 mm to impale oocytes and clamp the holding voltage at −60 mV. Experiments were recorded in buffer containing 10 mM HEPES (pH 7.4), 140 mM NaCl, 5 mM KCl, 2 mM CaCl2, 2 mM MgCl2, and 10 mM glucose.
(§3) Excitatory responses to a dilution series of ATP between 6.4 nM and 10 mM were examined across the different mutants. Each evoked response was normalized to an initial ATP-induced current evoked by the following concentrations: 500 µM ATP for R292A, 2 mM ATP for K309A, and 100 µM ATP for the remaining mutants and wild-type receptor. The data was fit in Prism 9 using the nonlinear regression named “EC50, x is concentration” to afford EC50 values. This value was then averaged amongst each singular condition and reported as an average plus or minus the standard deviation.

[2] = biological target: T2, hP2X1 K249A (Homo sapiens, UniProt P51575, K249A); details: for Normalized Current: hP2X1 K249A
T2 construct: hP2X1 mRNA that was made from linearized full-length wild-type or mutant pcDNA 3.1x; expressed in transfected cells; host or cells: Xenopus laevis oocytes (mRNA injection)
T2 sequence (P51575 1-399 K249A): T1 sequence (P51575 1-399 D170A) with A170D, K249A
Experimental: as §1, §2, §3

[3] = biological target: T3, hP2X1 R292A (Homo sapiens, UniProt P51575, R292A)
T3 construct: hP2X1 mRNA that was made from linearized full-length wild-type or mutant pcDNA 3.1x; expressed in transfected cells; host or cells: Xenopus laevis oocytes (mRNA injection)
T3 sequence (P51575 1-399 R292A): T1 sequence (P51575 1-399 D170A) with A170D, R292A
Experimental: as §1, §2, §3

[4] = biological target: T4, hP2X1 WT (Homo sapiens, UniProt P51575)
T4 construct: hP2X1 mRNA that was made from linearized full-length wild-type or mutant pcDNA 3.1x; expressed in transfected cells; host or cells: Xenopus laevis oocytes (mRNA injection)
T4 sequence (P51575 1-399): T1 sequence (P51575 1-399 D170A) with A170D
Experimental: as §1, §2, §3

- Normalized Current ([1]; [ATP] 1.000E-04 M): 0.9915 and 0.8795 and 0.8416
- Normalized Current ([1]; [ATP] 2.000E-05 M): 0.8809 and 0.7486 and 0.74
- Normalized Current ([1]; [ATP] 3.200E-08 M): 0.000000
- Normalized Current ([1]; [ATP] 4.000E-06 M): 0.723 and 0.5398 and 0.4488
- Normalized Current ([1]; [ATP] 5.000E-04 M): 1.029 and 1.009 and 0.9611
- Normalized Current ([2]; [ATP] 1.000E-04 M): 1.03 and 1.005 and 0.9647
- Normalized Current ([2]; [ATP] 2.000E-05 M): 1.005 and 0.9326 and 0.8353
- Normalized Current ([2]; [ATP] 4.000E-06 M): 0.7721 and 0.7584 and 0.7231
- Normalized Current ([2]; [ATP] 8.000E-07 M): 0.6172 and 0.5832 and 0.5545
- EC50 of ATP ([3]; TEVC): impacted
- Normalized Current ([3]; [ATP] 1.000E-04 M): 0.772 and 0.7521 and 0.7236
- Normalized Current ([3]; [ATP] 1.600E-07 M): 0.000000
- Normalized Current ([3]; [ATP] 2.000E-05 M): 0.2643 and 0.1768 and 0.1722
- Normalized Current ([3]; [ATP] 2.500E-03 M): 1.04 and 1.022 and 0.9381
- Normalized Current ([3]; [ATP] 5.000E-04 M): 0.9697 and 0.8815 and 0.878
- EC50 ([4]; TEVC, Xenopus laevis oocytes, mean ± SD, triplicate, read-out: apparent affinity (EC50) of ATP): 1700 ± 300 nM
- Normalized Current ([4]; [ATP] 1.000E-04 M): 1.041 and 0.9705 and 0.9151
- Normalized Current ([4]; [ATP] 1.600E-07 M): 0.08801 and 0.07128 and 0.05984
- Normalized Current ([4]; [ATP] 4.000E-06 M): 0.7387 and 0.5911 and 0.5682
- Normalized Current ([4]; [ATP] 5.000E-04 M): 1.055 and 1.025 and 0.9207
- Normalized Current ([4]; [ATP] 8.000E-07 M): 0.4523 and 0.3946 and 0.3316
- Hill slope of activation by ATP ([4]; mean ± SD of three EC50 traces): 0.9 ± 0.2
Compound: Nc1ncnc2c1ncn2[C@@H]1O[C@H](COP(=O)(O)OP(=O)(O)OP(=O)(O)O)[C@@H](O)[C@H]1O [ATP]
- apparent affinity (EC50) of ATP, effect of mutation ([1]; hP2X1 D170A vs wild-type, TEVC): do not appear to significantly change; also recorded: no major effect; also recorded: does not significantly impact
- apparent affinity (EC50) of ATP, effect of mutation ([2]; hP2X1 K249A vs wild-type, TEVC): do not appear to significantly change; also recorded: no major effect; also recorded: moderately increases
